# Measured values published in US9738653B2, “Fused furans for the treatment of hepatitis C” (BRISTOL-MYERS SQUIBB COMPANY, priority 2013, dated 2017).
# Columns and labels:
# [1] = molecular target: T1, HCV NS5B genotype 1b (Con1) (Hepatitis C virus genotype 1b, UniProt Q9WMX2); assay: HCV NS5B RdRp enzyme assay; format: biochemical; conditions: 1b enzyme, 24 hours at 30° C.
# T1 construct: Each untagged protein was expressed with an 18 amino acid C-terminal truncation to enhance the solubility; made in house; host or cells: E. coli BL21(DE3), pET21a
# Protocol: The cDNA encoding NS5B proteins of HCV genotype 1b (Con1), a genotype 1b variant with amino acid 316 mutated from cysteine to asparagine, and genotype 2a (JFH-1), were cloned into the pET21a expression vector. Each untagged protein was expressed with an 18 amino acid C-terminal truncation to enhance the solubility. The E. coli competent cell line BL21(DE3) was used for expression of the protein. Cultures were grown at 37° C. for ˜4 hours until the cultures reached an optical density of 2.0 at 600 nm. The cultures were cooled to 20° C. and induced with 1 mM IPTG. Fresh ampicillin was added to a final concentration of 50 μg/mL and the cells were grown overnight at 20° C.
# The lysis buffer consisted of 20 mM Tris-HCl, pH 7.4, 500 mM NaCl, 0.5% triton X-100, 1 mM DTT, 1 mM EDTA, 20% glycerol, 0.5 mg/mL lysozyme, 10 mM MgCl2, 15 ug/mL deoxyribonuclease I, and Complete™ protease inhibitor tablets (Roche). After addition of the lysis buffer, frozen cell pellets were resuspended using a tissue homogenizer. To reduce the viscosity of the sample, aliquots of the lysate were sonicated on ice using a microtip attached to a Branson sonicator. The sonicated lysate was centrifuged at 100,000×g for 30 minutes at 4° C. and filtered through a 0.2 μm filter unit (Corning).
# The protein was purified using two sequential chromatography steps: Heparin sepharose CL-6B and polyU sepharose 4B. The chromatography buffers were identical to the lysis buffer but contained no lysozyme, deoxyribonuclease I, MgCl2 or protease inhibitor and the NaCl concentration of the buffer was adjusted according to the requirements for charging the protein onto the column. Each column was eluted with a NaCl gradient which varied in length from 5-50 column volumes depending on the column type. […] The enzyme was aliquoted and stored at −80° C.
# An on-bead solid phase homogeneous assay was used in a 384-well format to assess NS5B inhibitors (WangY-K, Rigat K, Roberts S, and Gao M (2006) Anal Biochem, 359: 106-111). The biotinylated oligo dT12 primer was captured on streptavidin-coupled imaging beads (GE, RPNQ0261) by mixing primer and beads in 1× buffer and incubating at room temperature for three hours. Unbound primer was removed after centrifugation. The primer-bound beads were resuspended in 3× reaction mix (20 mM Hepes buffer, pH 7.5, dT primer coupled beads, poly A template, ^3H-UTP, and RNAse inhibitor (Promega N2515)). Compounds were serially diluted 1:3 in DMSO and aliquoted into assay plates. Equal volumes (5 μL) of water, 3× reaction mix, and enzyme in 3× assay buffer (60 mM Hepes buffer, pH 7.5, 7.5 mM MgCl2, 7.5 mM KCl, 3 mM DTT, 0.03 mg/mL BSA, 6% glycerol) were added to the diluted compound on the assay plate. Final concentration of components in 384-well assay: 0.36 nM template, 15 nM primer, 0.29 μM ^3H-UTP (0.3 μCi, 1.6 U/μL RNAse inhibitor, 7 nM NS5B enzyme, 0.01 mg/mL BSA, 1 mM DTT, and 0.33 μg/μL beads, 20 mM Hepes buffer, pH 7.5, 2.5 mM MgCl2, 2.5 mM KCl, and 0.1% DMSO.
# Reactions were allowed to proceed for 24 hours at 30° C. and terminated by the addition of 50 mM EDTA (5 μL). After incubating for at least 15 minutes, plates were read on an Amersham LEADseeker multimodality imaging system.
# IC50 values for compounds were determined using ten different [I]. IC50 values were calculated from the inhibition using the four-parameter logistic formula y=A+((B−A)/(1+((C/x)^D))), where A and B denote minimal and maximal % inhibition, respectively, C is the IC50, D is hill slope and x represents compound concentration.
# [2] = tested on: genotype 1b (Con-1) HCV replicon in Huh-7 cells; assay: HCV replicon luciferase assay; format: cell-based; conditions: 1b replicon, Renilla luciferase, 3 days incubation
# Protocol: The cell lines used to evaluate compounds consist of a human hepatocyte derived cell line (Huh-7) that constitutively expresses a genotype 1b (Con-1) HCV replicon or a genotype 1b (Con-1) HCV replicon with an asparagine replacing the cysteine at amino acid 316, or a genotype 2a (JFH-1) replicon, containing a Renilla luciferase reporter gene. These cells were maintained in Dulbecco's modified Eagle medium (DMEM) containing 10% FBS, 100 U/mL penicillin/streptomycin and 1.0 mg/mL G418.
# To evaluate compound efficacy, titrated compounds were transferred to sterile 384-well tissue culture treated plates, and the plates were seeded with HCV replicon cells ([…] at a density of 2.4×10^3 cells/well) in DMEM containing 4% FBS (final DMSO concentration at 0.5%). After 3 days incubation at 37° C., cells were analyzed for Renilla Luciferase activity using the EnduRen substrate (Promega cat #E6485) according to the manufacturer's directions. Briefly, the EnduRen substrate was diluted in DMEM and then added to the plates to a final concentration of 7.5 μM. The plates were incubated for at least 1 h at 37° C. then read on a Viewlux Imager (PerkinElmer) using a luminescence program. The 50% effective concentration (EC50) was calculated using the four-parameter logistic formula noted above.
# T1 sequence (Q9WMX2 2420-2992): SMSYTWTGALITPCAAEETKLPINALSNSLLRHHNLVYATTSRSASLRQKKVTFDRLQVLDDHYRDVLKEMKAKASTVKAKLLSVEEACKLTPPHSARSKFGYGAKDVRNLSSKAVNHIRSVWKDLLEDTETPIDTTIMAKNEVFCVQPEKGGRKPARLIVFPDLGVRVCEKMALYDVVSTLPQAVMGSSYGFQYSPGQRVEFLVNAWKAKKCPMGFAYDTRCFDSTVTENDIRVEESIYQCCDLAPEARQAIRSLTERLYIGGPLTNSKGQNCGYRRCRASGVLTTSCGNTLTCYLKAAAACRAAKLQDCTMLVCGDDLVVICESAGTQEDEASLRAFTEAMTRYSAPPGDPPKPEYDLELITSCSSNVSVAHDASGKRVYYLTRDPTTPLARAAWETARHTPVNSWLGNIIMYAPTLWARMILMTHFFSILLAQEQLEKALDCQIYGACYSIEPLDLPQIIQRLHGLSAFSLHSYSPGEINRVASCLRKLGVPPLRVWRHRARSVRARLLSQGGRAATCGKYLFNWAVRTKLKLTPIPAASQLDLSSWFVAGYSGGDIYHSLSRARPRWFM
SMILES,IC50 [1],"EC50 ([2]; Hepatitis C virus, Huh-7, 72 h)",EC50 [2]
CCC(C)c1cc2oc(-c3ccc(F)cc3)c(C(=O)NC)c2cc1-c1cccc(C(=O)NC23CC(C2)C3)c1 (stereo not drawn) [drawing 304],5.87 nM,10 nM,
CNC(=O)c1c(-c2ccc(F)cc2)oc2cc(CCNC(=O)OC)c(-c3cccc(C(=O)NC45CC(C4)C5)c3)cc12,20 nM,20 nM,
CNC(=O)c1c(-c2ccc(F)cc2)oc2cc(CCCO)c(-c3cccc(C(=O)NC45CC(C4)C5)c3)cc12,9.56 nM,3.86 nM,
CNC(=O)c1c(-c2ccc(F)cc2)oc2cc(OCC(F)(F)F)c(-c3ccc(OC)c(C(=O)NC45CC(C4)C5)c3)cc12,4.55 nM,10 nM,
CNC(=O)c1c(-c2ccc(F)cc2)oc2cc(NCC(F)(F)F)c(-c3ccc(OC)c(C(=O)NC45CC(C4)C5)c3)cc12,7.17 nM,5.08 nM,
CNC(=O)c1c(-c2ccc(F)cc2)oc2cc(CS(C)(=O)=O)c(-c3ccc(F)c(C(=O)NC45CC(C4)C5)c3)cc12,,70 nM,
CNC(=O)c1c(-c2ccc(F)cc2)oc2cc(CS(C)(=O)=O)c(-c3cccc(C(=O)NC45CC(C4)C5)c3)cc12,,70 nM,
CCC(C)c1cc2oc(-c3ccc(F)cc3)c(C(=O)NC)c2cc1-c1cccc(C(=O)NC23CC(C2)C3)c1 (stereo not drawn) [drawing 305],,,20 nM
CCCc1cc2oc(-c3ccc(F)cc3)c(C(=O)NC)c2cc1-c1ccc(F)c(C(=O)NC23CC(C2)C3)c1,10 nM,8.79 nM,
CNC(=O)c1c(-c2ccc(F)cc2)oc2nc(NCC(F)(F)F)c(-c3ccc(OC)c(C(=O)NC45CC(C4)C5)c3)cc12,20 nM,3.72 nM,
CNC(=O)c1c(-c2ccc(F)cc2)oc2cc(CC(=O)OC)c(-c3cccc(C(=O)NC45CC(C4)C5)c3)cc12,8.01 nM,8.19 nM,
CNC(=O)c1c(-c2ccc(F)cc2)oc2nc(CCC(F)(F)F)c(-c3ccc(OC)c(C(=O)NC45CC(C4)C5)c3)cc12,10 nM,9.23 nM,
CNC(=O)c1c(-c2ccc(F)cc2)oc2cc(N)c(-c3ccc(OC)c(C(=O)NC45CC(C4)C5)c3)cc12,,10 nM,
CNC(=O)c1c(-c2ccc(F)cc2)oc2nc(CCC(F)(F)F)c(-c3cncc(C(=O)NC45CC(C4)C5)c3)cc12,20 nM,3.3 nM,
CNC(=O)c1c(-c2ccc(F)cc2)oc2cc(OCC(F)(F)F)c(-c3cccc(C(=O)NC45CC(C4)C5)c3)cc12,,10 nM,
CNC(=O)c1c(-c2ccc(F)cc2)oc2nc(NCC(F)F)c(-c3ccc(F)c(C(=O)NC45CC(C4)C5)c3)cc12,6.13 nM,2.13 nM,
CNC(=O)Cc1cc2oc(-c3ccc(F)cc3)c(C(=O)NC)c2cc1-c1ccc(F)c(C(=O)NC23CC(C2)C3)c1,,50 nM,
CCCc1cc2oc(-c3ccc(F)cc3)c(C(=O)NC)c2cc1-c1cccc(C(=O)NC23CC(C2)C3)c1,20 nM,5.82 nM,
CNC(=O)c1c(-c2ccc(F)cc2)oc2cc(CCC(F)(F)F)c(-c3ccc(F)c(C(=O)NC45CC(C4)C5)c3)c(F)c12,,40 nM,

SMILES,IC50 [1],"EC50 ([2]; Hepatitis C virus, Huh-7, 72 h)",EC50 [2]
CNC(=O)c1c(-c2ccc(F)cc2)oc2nc(NCC(F)(F)F)c(-c3cnc(OC)c(C(=O)NC45CC(C4)C5)c3)cc12,6.54 nM,5.79 nM,
CNC(=O)c1c(-c2ccc(F)cc2)oc2cc(CCC(F)(F)F)c(-c3ccc(F)c(C(=O)NC45CC(C4)C5)c3)cc12,30 nM,10 nM,
CNC(=O)c1c(-c2ccc(F)cc2)oc2cc(CCC(F)(F)F)c(-c3cc(C(=O)NC45CC(C4)C5)c(F)cc3C)cc12,20 nM,20 nM,
CNC(=O)c1c(-c2ccc(F)cc2)oc2cc(COC)c(-c3cccc(C(=O)NC45CC(C4)C5)c3)cc12,,6.21 nM,
CNC(=O)c1c(-c2ccc(F)cc2)oc2nc(NCC(F)(F)F)c(-c3cccc(C(=O)NC45CC(C4)C5)c3)cc12,,3.58 nM,
CNC(=O)c1c(-c2ccc(F)cc2)oc2nc(OC)c(-c3ccc(F)c(C(=O)NC45CC(C4)C5)c3)cc12,90 nM,20 nM,
CNC(=O)c1c(-c2ccc(F)cc2)oc2cc(CC(=O)N(C)C)c(-c3ccc(F)c(C(=O)NC45CC(C4)C5)c3)cc12,,520 nM,
CNC(=O)c1c(-c2ccc(F)cc2)oc2cc(CC(=O)O)c(-c3cccc(C(=O)NC45CC(C4)C5)c3)cc12,,> 10000 nM,
CNC(=O)c1c(-c2ccc(F)cc2)oc2cc(CC(=O)O)c(-c3ccc(F)c(C(=O)NC45CC(C4)C5)c3)cc12,,8090 nM,
CNC(=O)Cc1cc2oc(-c3ccc(F)cc3)c(C(=O)NC)c2cc1-c1cccc(C(=O)NC23CC(C2)C3)c1,,50 nM,
CNC(=O)c1c(-c2ccc(F)cc2)oc2cc(CC(=O)OC)c(-c3ccc(F)c(C(=O)NC45CC(C4)C5)c3)cc12,,20 nM,
CNC(=O)c1c(-c2ccc(F)cc2)oc2nc(CCC(F)(F)F)c(-c3csc(C(=O)NC45CC(C4)C5)c3)cc12,,20 nM,
CNC(=O)c1c(-c2ccc(F)cc2)oc2cc(CCC(F)(F)F)c(-c3cccc(C(=O)NC45CC(C4)C5)c3)cc12,,30 nM,
CNC(=O)c1c(-c2ccc(F)cc2)oc2nc(NCC(F)(F)F)c(-c3cc(C(=O)NC45CC(C4)C5)ccc3OC)cc12,,9.14 nM,
CNC(=O)c1c(-c2ccc(F)cc2)oc2cc(CC(=O)N(C)C)c(-c3cccc(C(=O)NC45CC(C4)C5)c3)cc12,,310 nM,
CNC(=O)c1c(-c2ccc(F)cc2)oc2cc(CCC(F)(F)F)c(-c3cccc(C(=O)NC45CC(C4)C5)c3)c(F)c12,,10 nM,
CNC(=O)c1c(-c2ccc(F)cc2)oc2cc(CCCOC(=O)c3ccccc3)c(-c3cccc(C(=O)NC45CC(C4)C5)c3)cc12,,140 nM,
CNC(=O)c1c(-c2ccc(F)cc2)oc2nc(N(CC(F)(F)F)S(C)(=O)=O)c(-c3cccc(C(=O)NC45CC(C4)C5)c3)cc12,,20 nM,
CNC(=O)c1c(-c2ccc(F)cc2)oc2cc(CC(N)=O)c(-c3ccc(F)c(C(=O)NC45CC(C4)C5)c3)cc12,,10 nM,
